The numbers were not newly measured in patent publication US11110072B2, “Broad spectrum pharmacological composition for treatment of various infections and diseases and methods of use” (Greyfer Innova Pharma, LLC, priority 2013, dated 2021), which cites them from elsewhere.

Each structure is given as a SMILES string.

For series [1] the following is noted: after oral administration.
The conditions of series [2]: even at high concentrations.

Consider `O=C(O)CC(O)(CC(=O)O)C(=O)O` [Citric acid, 2-hydroxytricarboxylic acid], for which, in series [1], the “excreted unchanged in urine” value is “less than 1%”. Besides, the “effect in contact with skin” value in series [2] is on record as “not injurious in contact with skin”.
